Experimental findings from patent US11440910B2, “Pesticidally active heterocyclic derivatives with sulfur containing substituents” (SYNGENTA PARTICIPATIONS AG, priority 2017, dated 2022) are described below.

Holding throughout (type): in vivo
Assay [1] relates to Bemisia tabaci (Cotton white fly). The assay can be described thus: Example B7: Bemisia tabaci, cotton leaf discs sprayed. As to conditions: foliar, 144 h, application rate 200 ppm, adult white flies, 6 days after incubation. Here is the method:
Example B7: Bemisia Tabaci (Cotton White Fly)
Cotton leaf discs were placed on agar in 24-well microtiter plates and sprayed with aqueous test solutions prepared from 10′000 ppm DMSO stock solutions. After drying the leaf discs were infested with adult white flies. The samples were checked for mortality 6 days after incubation.

Assay [2] deals with Myzus persicae (Green peach aphid). The assay can be described thus: Example B6: Myzus persicae, roots of pea seedlings in test solution. Conditions: 144 h, test rate 24 ppm, mixed ages, 6 days after placing seedlings into test solutions. The protocol: Example B6: Myzus Persicae (Green Peach Aphid)
Roots of pea seedlings infested with an aphid population of mixed ages were placed directly into aqueous test solutions prepared from 10′000 DMSO stock solutions. The samples were assessed for mortality 6 days after placing seedlings into test solutions.

Assay [3] has as its system Euschistus heros (Neotropical brown stink bug). The assay can be described thus: Example B8: Euschistus heros, soybean leaves sprayed. As to conditions: 120 h, application rate 200 ppm, N2 nymphs, 5 days after infestation, read-out: effect in at least one of the two categories (mortality or growth inhibition). Here is the method:
Example B8: Euschistus Heros (Neotropical Brown Stink Bug)
Soybean leaves on agar in 24-well microtiter plates were sprayed with aqueous test solutions prepared from 10′000 ppm DMSO stock solutions. After drying the leaves were infested with N2 nymphs. The samples were assessed for mortality and growth inhibition in comparison to untreated samples 5 days after infestation.

The subject of assay [4] is Plutella xylostella (Diamond back moth). In words: Example B3: Plutella xylostella, artificial diet. Conditions: 120 h, application rate 200 ppm, L2 larvae, 5 days after infestation, read-out: effect in at least one of the two categories (mortality or growth inhibition). Here is the method:
Example B3: Plutella Xylostella (Diamond Back Moth)
24-well microtiter plates with artificial diet were treated with aqueous test solutions prepared from 10′000 ppm DMSO stock solutions by pipetting. After drying, the plates were infested with L2 larvae (10 to 15 per well). The samples were assessed for mortality and growth inhibition in comparison to untreated samples 5 days after infestation.

Assay [5] relates to Myzus persicae (Green peach aphid). In words: Example B5: Myzus persicae, sunflower leaf discs sprayed. As to conditions: foliar, 144 h, application rate 200 ppm, mixed ages, 6 days after infestation. The protocol: Example B5: Myzus Persicae (Green Peach Aphid)
Sunflower leaf discs were placed onto agar in a 24-well microtiter plate and sprayed with aqueous test solutions prepared from 10′000 ppm DMSO stock solutions. After drying, the leaf discs were infested with an aphid population of mixed ages. The samples were assessed for mortality 6 days after infestation.

For assay [6], the system named is Diabrotica balteata (Corn root worm). The assay can be described thus: Example B4: Diabrotica balteata, maize sprouts sprayed. As to conditions: 96 h, application rate 200 ppm, L2 larvae, 4 days after infestation, read-out: effect in at least one of the two categories (mortality or growth inhibition). Here is the method: Example B4: Diabrotica Balteata (Corn Root Worm)
Maize sprouts placed onto an agar layer in 24-well microtiter plates were treated with aqueous test solutions prepared from 10′000 ppm DMSO stock solutions by spraying. After drying, the plates were infested with L2 larvae (6 to 10 per well). The samples were assessed for mortality and growth inhibition in comparison to untreated samples 4 days after infestation.

The test system of assay [7] is Spodoptera littoralis (Egyptian cotton leaf worm). In words: Example B2: Spodoptera littoralis, systemic test via lettuce roots in agar. Conditions: 144 h, test rate 12.5 ppm, 6 days after infestation, read-out: effect in at least one of the three categories (mortality, anti-feeding, or growth inhibition). An excerpt:
Example B2: Spodoptera Littoralis (Egyptian Cotton Leaf Worm)
Test compounds were applied by pipette from 10′000 ppm DMSO stock solutions into 24-well plates and mixed with agar. Lettuce seeds were placed onto the agar and the multi well plate was closed by another plate which contained also agar. After 7 days the compound was absorbed by the roots and the lettuce grew into the lid plate. The lettuce leaves were then cut off into the lid plate. Spodoptera eggs were pipetted through a plastic stencil onto a humid gel blotting paper and the lid plate was closed with it. The samples were assessed for mortality, anti-feedant effect and growth inhibition in comparison to untreated samples 6 days after infestation.

For assay [8] the test system is unchanged. The assay can be described thus: Example B1: Spodoptera littoralis, cotton leaf discs sprayed. As to conditions: foliar, 72 h, application rate 200 ppm, L1 larvae, 3 days after infestation, read-out: control (at least one of mortality, anti-feedant effect, growth inhibition). The protocol: Example B1: Spodoptera Littoralis (Egyptian Cotton Leaf Worm)
Cotton leaf discs were placed onto agar in 24-well microtiter plates and sprayed with aqueous test solutions prepared from 10′000 ppm DMSO stock solutions. After drying the leaf discs were infested with five L1 larvae. The samples were assessed for mortality, anti-feeding effect, and growth inhibition in comparison to untreated samples 3 days after infestation. Control of Spodoptera littoralis by a test sample is given when at least one of the categories mortality, anti-feedant effect, and growth inhibition is higher than the untreated sample.

In assay [9] the test system is Euschistus heros. The assay can be described thus: Example B13: comparison against Euschistus heros, soybean plants sprayed. Conditions: 120 h, Concentration 3 ppm, N2 nymphs on 2 week old soybean plants, 5 days after treatment. Here is the method:
Activity of compound P17 according to the present invention and of compound P15 from WO2016/026848 against Euschistus heros is summarized in Table B13.
2 week old soybean plants were sprayed with diluted aqueous test solutions. Afterwards plants were infested with 10 stink bug nymphs (N2). Soybean seeds were added as additional food source to the test system. 5 days after treatment the samples were assessed for mortality.

Consider `CCS(=O)(=O)c1cc(C(C)(C)C#N)cnc1-c1nc2cc(C(F)(F)F)nnc2n1C` [Compound P2, 2-[5-ethylsulfonyl-6-[7-methyl-3-(trifluoromethyl)imidazo[4,5-c]pyridazin-6-yl]-3-pyridyl]-2-methyl-propanenitrile], for which the mortality at 200 ppm in assay [1] and in [5] was at least 80% throughout. In assay [2], the mortality at 24 ppm is at least 80%. In addition, the percent effect (mortality or growth inhibition) at 200 ppm in assay [3], in assay [4] and in assay [6] was at least 80% in each case. In addition, in [7], the percent effect (mortality, anti-feeding or growth inhibition) at 12.5 ppm was at least 80%. The percent control (mortality, anti-feedant effect or growth inhibition) at 200 ppm in [8] was at least 80%.

With `CCS(=O)(=O)c1cc(C(C)(C)C#N)ccc1-c1nc2cc(C(F)(F)F)ncc2n1C` [Compound P17, 2-[3-ethylsulfonyl-4-[3-methyl-6-(trifluoromethyl)imidazo[4,5-c]pyridin-2-yl]phenyl]-2-methyl-propanenitrile], the mortality at 200 ppm in assay [1] and in assay [5] was at least 80% each time. Besides, in assay [9], the mortality at 3 ppm was determined as 95%. The same compound displayed a mortality at 24 ppm in [2] of at least 80%. In addition, the percent effect (mortality or growth inhibition) at 200 ppm in assay [3], in assay [4] and in assay [6] was at least 80% throughout.

In general, mortality refers to the percentage killed.
